This is an account of results in patent US7795281B2, “Optically active dihydropyridine derivative” (Daiichi Sankyo Company, Limited, priority 2002, dated 2010).

pIC50, pKi: −log10 of the molar value.

As usually defined, the pKi is −log10 of the Ki, conventionally taken in molar units.

Experiment [1] has as its target T1, L calcium channel (Sus scrofa, UniProt A0A8W4FNC0).
T1 construct: from tissue; host or cells: porcine myocardium (microsome fraction)
As to the kind of experiment: Receptor binding experiment using porcine myocardial microsomes (3H-nitrendipine). To be noted: for pIC50 / pKi: porcine myocardial microsomes, average of two experiments; for pIC50: 3H-nitrendipine 0.1 nM, read-out: IC50 (50% inhibitory concentration of specific binding); for pKi: Ki=IC50/(1+[L]/Kd), read-out: Ki (inhibition constant). The method, then: Receptor Binding Experiment Using Porcine Myocardial Microsomes
Porcine myocardial microsomes were used for the source of the L calcium channel, while ^3H-nitrendipine was used for the ligand of the L calcium channel. The microsomes (0.2 mg protein/ml), ^3H-nitrendipine (0.1 nM) and test drug (racemic form, R form or S form) were allowed to react at room temperature for 30 minutes in HEPES buffer (50 mM, pH 7.4) followed by measurement of the ^3H-nitrendipine that bound to the microsome fraction with a liquid scintillation counter. The count in the presence of 10 μM non-labeled nitrendipine (amount of non-specific binding) was then subtracted to determine the amount of specific binding. The relationship between the concentration and inhibition rate of specific binding was approximated to a logistic curve for each test drug to determine IC50 (50% inhibitory concentration of specific binding). The Ki value (inhibition constant) for each test drug was then determined from the following formula using the Kd (dissociation constant) of nitrendipine as separately determined from a Scatchard plot: Ki=IC50/(1+[L]/Kd) (wherein [L] is the concentration of ^3H-nitrendipine).

The test system of experiment [2] is male spontaneously hypertensive rats. As to the kind of experiment: Blood pressure lowering action in hypertensive rats. Format: in vivo, rat. The method, then: Blood Pressure Lowering Action in Hypertensive Rats
Cannulas for measuring blood pressure and administering drug were inserted into the inguinal artery and inguinal vein, respectively, of male spontaneously hypertensive rats age 25 to 29 weeks followed by intravenous administration of a compound under anesthesia and measurement of blood pressure over time for the course of 120 minutes.
The results of comparing the racemic form (20 μg/kg) and R form (10 μg/kg) are shown in Table 2, while the results of comparing the R form (3 μg/kg, 10 μg/kg) and the S form (1000 μg/kg) in a different series of experiments are shown in Table 3.

T1 sequence (A0A8W4FNC0 1-2067): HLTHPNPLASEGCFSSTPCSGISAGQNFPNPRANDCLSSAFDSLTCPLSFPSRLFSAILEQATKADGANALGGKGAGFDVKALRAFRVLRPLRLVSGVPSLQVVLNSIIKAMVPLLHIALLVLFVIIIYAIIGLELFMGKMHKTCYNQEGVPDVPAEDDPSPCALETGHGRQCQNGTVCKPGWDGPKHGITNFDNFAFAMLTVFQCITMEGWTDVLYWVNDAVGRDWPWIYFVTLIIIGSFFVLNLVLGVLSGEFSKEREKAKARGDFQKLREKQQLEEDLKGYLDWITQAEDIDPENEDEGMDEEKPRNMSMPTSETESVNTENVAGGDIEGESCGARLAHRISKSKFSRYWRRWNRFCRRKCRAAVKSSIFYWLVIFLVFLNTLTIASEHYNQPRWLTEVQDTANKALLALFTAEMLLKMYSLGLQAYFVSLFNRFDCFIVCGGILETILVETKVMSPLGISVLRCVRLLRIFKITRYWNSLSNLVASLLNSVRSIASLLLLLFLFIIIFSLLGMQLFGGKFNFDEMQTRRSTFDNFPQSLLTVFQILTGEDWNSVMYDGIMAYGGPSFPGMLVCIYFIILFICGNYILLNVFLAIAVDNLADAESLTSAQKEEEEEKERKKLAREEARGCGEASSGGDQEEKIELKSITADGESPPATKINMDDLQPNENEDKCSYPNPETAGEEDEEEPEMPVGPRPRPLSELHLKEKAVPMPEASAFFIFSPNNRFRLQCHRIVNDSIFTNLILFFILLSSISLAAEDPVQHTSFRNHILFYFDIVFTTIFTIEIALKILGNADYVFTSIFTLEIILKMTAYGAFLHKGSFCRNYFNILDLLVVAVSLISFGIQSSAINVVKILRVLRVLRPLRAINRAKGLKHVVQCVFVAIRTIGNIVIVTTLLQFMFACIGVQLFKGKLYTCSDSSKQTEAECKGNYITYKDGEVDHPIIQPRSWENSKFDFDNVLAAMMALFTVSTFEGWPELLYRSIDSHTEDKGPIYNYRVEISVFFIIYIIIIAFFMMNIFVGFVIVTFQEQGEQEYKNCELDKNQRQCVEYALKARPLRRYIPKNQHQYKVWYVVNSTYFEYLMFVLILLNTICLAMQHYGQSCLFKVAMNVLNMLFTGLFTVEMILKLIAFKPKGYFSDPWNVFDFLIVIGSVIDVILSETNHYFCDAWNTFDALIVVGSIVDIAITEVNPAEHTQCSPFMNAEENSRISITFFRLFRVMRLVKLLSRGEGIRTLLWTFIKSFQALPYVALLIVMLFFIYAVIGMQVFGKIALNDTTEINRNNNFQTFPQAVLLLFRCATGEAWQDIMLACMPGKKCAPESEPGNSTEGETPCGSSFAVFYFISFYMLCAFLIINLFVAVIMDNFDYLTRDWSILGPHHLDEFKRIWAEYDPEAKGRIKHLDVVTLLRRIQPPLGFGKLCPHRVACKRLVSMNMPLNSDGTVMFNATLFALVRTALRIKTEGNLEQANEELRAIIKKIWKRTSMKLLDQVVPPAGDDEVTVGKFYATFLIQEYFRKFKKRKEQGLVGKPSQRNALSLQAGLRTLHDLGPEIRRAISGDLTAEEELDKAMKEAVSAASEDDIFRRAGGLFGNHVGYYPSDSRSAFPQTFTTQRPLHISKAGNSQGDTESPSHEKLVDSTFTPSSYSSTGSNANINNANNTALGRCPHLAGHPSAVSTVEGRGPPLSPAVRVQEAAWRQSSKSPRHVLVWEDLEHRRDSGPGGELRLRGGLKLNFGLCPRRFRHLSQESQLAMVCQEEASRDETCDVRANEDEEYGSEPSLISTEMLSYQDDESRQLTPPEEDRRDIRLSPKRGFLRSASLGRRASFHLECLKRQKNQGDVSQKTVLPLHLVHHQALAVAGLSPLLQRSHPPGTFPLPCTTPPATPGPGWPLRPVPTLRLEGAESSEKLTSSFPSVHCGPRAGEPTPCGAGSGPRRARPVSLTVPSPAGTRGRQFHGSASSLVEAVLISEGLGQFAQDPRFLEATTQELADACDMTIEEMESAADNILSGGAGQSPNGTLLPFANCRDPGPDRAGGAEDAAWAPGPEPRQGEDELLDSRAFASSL

With `CC1=C(C(=O)OC(C)C)C(c2cccc([N+](=O)[O-])c2)C(C(=O)OC2CN(C(c3ccccc3)c3ccccc3)C2)=C(N)N1` (racemic) [Racemic form, (±)-2-amino-1,4-dihydro-6-methyl-4-(3-nitrophenyl)-3,5-pyridinedicarboxylic acid 3-(1-diphenylmethylazetidin-3-yl) ester 5-isopropyl ester, reference compound], the pIC50 in experiment [1] was 8.51. The pKi in experiment [1] is 8.68. Also, the “Change in blood pressure” value in experiment [2] (20 μg/kg i.v., 0 minutes, Table 2, mean ± standard error) was 0 ± 0 mmHg; in experiment [2] (20 μg/kg i.v., 10 minutes, Table 2, mean ± standard error), −21 ± 2 mmHg; in experiment [2] (20 μg/kg i.v., 30 minutes, Table 2, mean ± standard error), −35 ± 4 mmHg; in experiment [2] (20 μg/kg i.v., 60 minutes, Table 2, mean ± standard error) it was −42 ± 6 mmHg; in experiment [2] (20 μg/kg i.v., 90 minutes, Table 2, mean ± standard error), −45 ± 6 mmHg; in experiment [2] (20 μg/kg i.v., 120 minutes, Table 2, mean ± standard error), −48 ± 7 mmHg.
`CC1=C(C(=O)OC(C)C)[C@@H](c2cccc([N+](=O)[O-])c2)C(C(=O)OC2CN(C(c3ccccc3)c3ccccc3)C2)=C(N)N1` [R form, (R)-2-amino-1,4-dihydro-6-methyl-4-(3-nitrophenyl)-3,5-pyridinedicarboxylic acid 3-(1-diphenylmethylazetidin-3-yl) ester 5-isopropyl ester]: the “L calcium channel inhibitory activity, potency relative to S form” value in experiment [1] (R form vs S form) is on record as “roughly 500 times”. Besides, in experiment [1] (R form vs racemic form), the “L calcium channel inhibitory activity, potency relative to racemic form” value is given as “more than twice as potent”. Further, the pIC50 in experiment [1] was 8.89. Further, in experiment [1], the pKi is 9.06. In addition, the “Change in blood pressure” value in experiment [2] (3 μg/kg i.v., 0 minutes, Table 3 (different series of experiments), mean ± standard error) was 0 ± 0 mmHg; in experiment [2] (3 μg/kg i.v., 10 minutes, Table 3 (different series of experiments), mean ± standard error), −3 ± 3 mmHg; in experiment [2] (3 μg/kg i.v., 30 minutes, Table 3 (different series of experiments), mean ± standard error), −14 ± 3 mmHg; in experiment [2] (3 μg/kg i.v., 60 minutes, Table 3 (different series of experiments), mean ± standard error), −28 ± 3 mmHg; in experiment [2] (3 μg/kg i.v., 90 minutes, Table 3 (different series of experiments), mean ± standard error), −34 ± 5 mmHg; in experiment [2] (3 μg/kg i.v., 120 minutes, Table 3 (different series of experiments), mean ± standard error), −34 ± 10 mmHg. Moreover, the “Change in blood pressure” value is on record as 0 ± 0 mmHg in experiment [2] (10 μg/kg i.v., 0 minutes, Table 2, mean ± standard error); 0 ± 0 mmHg in experiment [2] (10 μg/kg i.v., 0 minutes, Table 3 (different series of experiments), mean ± standard error); −17 ± 4 mmHg in experiment [2] (10 μg/kg i.v., 10 minutes, Table 2, mean ± standard error); −23 ± 5 mmHg in experiment [2] (10 μg/kg i.v., 10 minutes, Table 3 (different series of experiments), mean ± standard error); −28 ± 5 mmHg in experiment [2] (10 μg/kg i.v., 30 minutes, Table 2, mean ± standard error); −36 ± 6 mmHg in experiment [2] (10 μg/kg i.v., 30 minutes, Table 3 (different series of experiments), mean ± standard error). Moreover, the “Change in blood pressure” value is −43 ± 7 mmHg in experiment [2] (10 μg/kg i.v., 60 minutes, Table 2, mean ± standard error); −49 ± 11 mmHg in experiment [2] (10 μg/kg i.v., 60 minutes, Table 3 (different series of experiments), mean ± standard error); −45 ± 7 mmHg in experiment [2] (10 μg/kg i.v., 90 minutes, Table 2, mean ± standard error); −54 ± 8 mmHg in experiment [2] (10 μg/kg i.v., 90 minutes, Table 3 (different series of experiments), mean ± standard error); −47 ± 6 mmHg in experiment [2] (10 μg/kg i.v., 120 minutes, Table 2, mean ± standard error); −61 ± 6 mmHg in experiment [2] (10 μg/kg i.v., 120 minutes, Table 3 (different series of experiments), mean ± standard error). Moreover, the “Blood pressure lowering activity, potency relative to S form” value in experiment [2] (R form vs S form) was “roughly 300 times”. The “Blood pressure lowering activity, potency relative to racemic form” value in experiment [2] (R form vs racemic form) was “roughly twice as potent”.
As to `CC1=C(C(=O)OC(C)C)[C@H](c2cccc([N+](=O)[O-])c2)C(C(=O)OC2CN(C(c3ccccc3)c3ccccc3)C2)=C(N)N1` [S form, (S)-2-amino-1,4-dihydro-6-methyl-4-(3-nitrophenyl)-3,5-pyridinedicarboxylic acid 3-(1-diphenylmethylazetidin-3-yl) ester 5-isopropyl ester], in experiment [1], the pIC50 is 6.15. Further, in experiment [1], the pKi was 6.34. Further, the “Change in blood pressure” value in experiment [2] (1000 μg/kg i.v., 0 minutes, Table 3 (different series of experiments), mean ± standard error) is recorded as 0 ± 0 mmHg; in experiment [2] (1000 μg/kg i.v., 10 minutes, Table 3 (different series of experiments), mean ± standard error), −5 ± 1 mmHg; in experiment [2] (1000 μg/kg i.v., 30 minutes, Table 3 (different series of experiments), mean ± standard error) it was −18 ± 6 mmHg; in experiment [2] (1000 μg/kg i.v., 60 minutes, Table 3 (different series of experiments), mean ± standard error), −29 ± 10 mmHg; in experiment [2] (1000 μg/kg i.v., 90 minutes, Table 3 (different series of experiments), mean ± standard error), −36 ± 7 mmHg; in experiment [2] (1000 μg/kg i.v., 120 minutes, Table 3 (different series of experiments), mean ± standard error), −35 ± 4 mmHg.
